This is an account of results in patent US20230046078A1, “METHODS OF USING SUBSTITUTED FLAVONES FOR TREATING BONE DISORDERS” (EMORY UNIVERSITY, priority 2021, published 2023).

Broadly, the EC50 is the concentration that produces a half-maximal response.

Entries after “also recorded” stand apart in the source; their conditions may differ.

One assay relates to BDNF/TrkB signaling. The assay can be described thus: Immunoblotting of p-TrkB signaling in bone marrow after oral R13. Format: in vivo, mice. The note with it: R13-derived 7,8-DHF after oral administration of R13.
Assay [1] concerns MC3T3-E1 cells. It counts as cell-based, Murine. To be noted: OIM, 4 days.
Another assay concerns AEP. The assay can be described thus: AEP activity assay on MC3T3-E1 cell lysates. It counts as cell-based, Murine. To be noted: MC3T3 cells in OIM; substrate Z-Ala-Ala-Asn-AMC. The protocol: Cell lysates (10 μg) were incubated in 200 μl assay buffer (20 mM citric acid, 60 mM Na2HPO4, 1 mM EDTA, 0.1% CHAPS, and 1 mM DTT, pH 6.0) containing 20 μM δ-secretase substrate Z-Ala-Ala-Asn-AMC (Bachem, Bubendorf, Switzerland). AMC released by substrate cleavage was quantified by measuring at 460 nm in a fluorescence plate reader at 37° C. for 2 h in kinetic mode.

Assay [2] concerns MC3T3-E1 cells. It counts as cell-based, Murine. To be noted: OIM, four days. The protocol: Total RNA was isolated by TRIzol (Life Technologies, Carlsbad, Calif.). Reverse transcription was performed with SuperScript III reverse transcriptase (Life Technologies). Gene-specific primers and probes were designed and bought from Taqman (Life Technologies). All real-time PCR reactions were performed using the ABI 7500-Fast Real-Time PCR System and the Taqman Universal Master Mix Kit (Life Technologies). The relative quantification of gene expression was calculated using the ΔΔCt method. Predesigned real-time PCR primers from Applied Biosystems (Waltham, Mass.) were used for the analysis of Opg (Tnfrsf11b; Mm0043545_m1), RANK-L (Tnfsf11; Mm00441908_m1), AEP (Lgmn; Mm01325350_m1), GAPDH (Gapdh; Mm99999915_g1).

The test system of assay [3] is MC3T3-E1 cells. The assay can be described thus: ELISA of OPG and RANK-L secreted into the medium of MC3T3 cells. Format: cell-based, Murine. To be noted: OIM; vs OIM alone. The source says:
FIG. 9, Panel A contains representative images of ALP staining in […] cells treated with BDNF or 7,8-DHF combined with or without K252a for 14 days (n=3 independent experiments) (Scale bar, 5 mm (upper panel), 200 μm (lower panel)). […] FIG. 9, Panel C contains Western blots for MC3T3 cells cultured in complete medium or osteogenic induction medium (OIM) with BDNF or 7,8 DHF combined with or without K252a for 4 days. […] FIG. 9, Panel D contains graphs of the relative protein levels of C/EBPP, p-C/EBPβ, AEP, RANK-L, OPG, Osterix, p-TrkB/TrkB and p-Akt/AKT in MC3T3 cells cultured in the complete medium or OIM with BDNF or 7,8-DHF combined with or without K252a for four days. Data are shown as mean±SEM of three independent experiments, one-way ANOVA. Data are shown in each graph from left to right as 1) Control, 2) OIM+DMSO, 3) OIM+BDNF, 4) OIM+7,8-DHF, 5) OIM+BDNF+K252a, and 6) OIM+7,8-DHF+K252a. FIG. 9, Panel E contains graphs of an AEP enzymatic activity assay. BDNF and 7,8-DHF inhibit AEP activities, and K252a abolish BDNF and 7,8-DHF's effects. Data are shown as mean±SEM of 3 independent experiments, one-way ANOVA. Data are shown in each graph from left to right as 1) Control, 2) OIM+DMSO, 3) OIM+BDNF, 4) OIM+7,8-DHF, 5) OIM+BDNF+K252a, and 6) OIM+7,8-DHF+K252a. FIG. 9, Panel F contains graphs of qPCR results showing that OPG mRNA expression increases in MC3T3 cells after 7,8-DHF treatment for four days. Data are shown as mean±SEM of three independent experiments, one-way ANOVA. Data are shown in each graph from left to right as 1) Control, 2) OIM+DMSO, 3) OIM+BDNF, 4) OIM+7,8-DHF, 5) OIM+BDNF+K252a, and 6) OIM+7,8-DHF+K252a. FIG. 9, Panel G contains graphs showing that 7,8-DHF increases OPG and decreases the RANK-L/OPG ratio. Levels of OPG and RANK-L proteins secreted into the medium were measured by ELISA. Data are shown as mean±SEM of 3 independent experiments, one-way ANOVA. Data are shown in each graph from left to right as 1) Control, 2) OIM+DMSO, 3) OIM+BDNF, 4) OIM+7,8-DHF, 5) OIM+BDNF+K252a, and 6) OIM+7,8-DHF+K252a.
(In general: An ELISA detects its analyte on a solid surface through an enzyme-linked reagent.)

A further assay has as its system TrkB. The note with it: primary neurons; read-out: EC50 for activating TrkB; cited from earlier work.
In assay [4] the test system is MC3T3-E1 cells. The note with it: OIM.
Experimental: MC3T3-E1 cells were seeded onto plates in complete medium and cultured for 24 days, until the cells reached 70% confluence.
MC3T3-E1 and RAW 264.7 cells were washed with ice-cold PBS and lysed in (50 mM Tris, pH 7.4, 40 mM NaCl, 1 mM EDTA, 0.5% Triton X-100, 1.5 mM Na3VO4, 50 mM NaF, 10 mM sodium pyrophosphate, 10 mM sodium β-glycerophosphate, supplemented with protease inhibitor cocktail) at 4° C. for 0.5 h, and centrifuged for 25 min at 15,000 rpm. The supernatant was boiled in SDS loading buffer. After SDS-PAGE, the samples were transferred to a nitrocellulose membrane. The membrane was blocked with TBS containing 5% nonfat milk and 0.1% Tween 20 (TBST) at room temperature for 2 hours, followed by the incubation with primary antibody at 4° C. overnight, and with the secondary antibody at room temperature for 2 hours. After washing with TBST, the membrane was developed using the enhanced chemiluminescent (ECL) detection system.
To further interrogate the molecular mechanism of 7,8-DHF in promoting OPG expression, a time course study in MC3T3-E1 cells in the presence of OIM was conducted.

Take `O=c1cc(-c2ccccc2)oc2c(O)c(O)ccc12` [7,8-DHF]: in the assay with BDNF/TrkB signaling, the “BDNF/TrkB signaling in the bone marrow (p-TrkB, AKT, MAPK phosphorylation)” value was “activates”. Moreover, in the assay with MC3T3-E1 cells [1], the AEP expression entry was “diminished” and the “RANK-L protein (Western blot)” value is listed as “augmentation”. The AEP protease activities entry in the assay with AEP was “greatly blocked; also recorded: inhibit”. Also, the “RANK-L mRNA” value in the assay on MC3T3-E1 cells [2] is listed as “elevated”. In the assay on MC3T3-E1 cells [3], the “OPG protein secreted into the medium” value is listed as “further augmented; also recorded: increases”; the “RANK-L protein secreted into the medium” value is on record as “further augmented”; the “RANK-L/OPG ratio (ELISA)” value is “OIM alone were significantly higher than BDNF and 7,8-DHF; also recorded: decreases”. For the same molecule, the concentration for a half-maximal effect (EC50) in the assay with TrkB was roughly 50 nM. Moreover, the “CREB or c-Jun levels” value in the assay with MC3T3-E1 cells [4] (siRNA experiment) is given as “without interfering”. Further, in the assay on MC3T3-E1 cells [4] (time course 0-60 min), the p-Akt entry is on record as “activated”, the p-C/EBPβ signal result is reported as “time-dependently increased”, the p-CREB signal result is listed as “time-dependently increased” and the p-MAPK entry is on record as “activated”. In addition, in the assay with MC3T3-E1 cells [4] (time course 0-60 min), the p-TrkB entry is given as “activated” and the p-c-Jun signal entry is recorded as “time-dependently increased”.
